Data as given in patent US12577231B2, “Androgen receptor PROTACS” (GlaxoSmithKline Intellectual Property Development Limited, priority 2023, dated 2026).
Changes are numbered by the printed parent chain.

Tests used:
Androgen receptor H875Y = molecular target: T1, Androgen receptor H875Y (Homo sapiens, UniProt P10275, H875Y); assay: Degradation of overexpressed Androgen Receptor in A549 cells (HiBiT), H875Y; type: cell-based; details: A549 cells overexpressing AR H875Y, cycloheximide, 24 hours
T1 construct: expressed in transfected cells; host or cells: A549, transduced, puromycin selected
T1 sequence (P10275 1-920 H875Y): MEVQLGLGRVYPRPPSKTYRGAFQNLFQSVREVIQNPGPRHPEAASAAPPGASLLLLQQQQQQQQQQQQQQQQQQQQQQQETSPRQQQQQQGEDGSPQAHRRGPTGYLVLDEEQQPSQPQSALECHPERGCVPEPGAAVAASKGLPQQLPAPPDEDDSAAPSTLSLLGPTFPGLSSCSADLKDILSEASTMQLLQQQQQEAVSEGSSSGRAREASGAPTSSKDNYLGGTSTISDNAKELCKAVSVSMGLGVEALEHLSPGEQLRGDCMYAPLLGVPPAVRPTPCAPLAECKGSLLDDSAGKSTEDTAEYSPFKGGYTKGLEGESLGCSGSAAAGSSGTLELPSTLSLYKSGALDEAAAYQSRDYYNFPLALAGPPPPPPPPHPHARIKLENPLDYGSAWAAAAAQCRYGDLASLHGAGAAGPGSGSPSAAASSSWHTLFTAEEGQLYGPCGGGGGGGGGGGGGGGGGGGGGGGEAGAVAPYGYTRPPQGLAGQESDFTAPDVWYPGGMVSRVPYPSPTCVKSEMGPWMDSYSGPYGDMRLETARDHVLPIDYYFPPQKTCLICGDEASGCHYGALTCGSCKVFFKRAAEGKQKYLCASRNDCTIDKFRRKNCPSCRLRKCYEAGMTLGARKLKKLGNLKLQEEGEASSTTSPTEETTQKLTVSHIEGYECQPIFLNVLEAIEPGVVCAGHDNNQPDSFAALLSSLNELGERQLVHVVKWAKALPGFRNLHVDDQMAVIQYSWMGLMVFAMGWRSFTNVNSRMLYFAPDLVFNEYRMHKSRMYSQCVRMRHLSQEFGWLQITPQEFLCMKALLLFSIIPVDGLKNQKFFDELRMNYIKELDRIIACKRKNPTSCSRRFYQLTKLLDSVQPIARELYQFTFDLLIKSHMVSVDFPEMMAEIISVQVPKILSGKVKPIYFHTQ
Protocol: (§1) A549 cells were transduced to express wild type androgen receptor and Androgen receptor containing the following mutations (L702H, H875Y W742C W742L F877L, T878A and T878A/H875Y) with HiBiT tags. Transduced cells following puromycin selection were maintained in a humidified incubator (at 37° C. and 5% CO2 in the DMEM medium supplemented with 1% (v/v) Pen/Strep, 1% (v/v) Glutamax and 10% (v/v) FBS. A549 cells expressing each AR construct were detached from plate and counted. Cell suspensions at density 0.2 million per mL were prepared. Cell suspension was supplemented with 100 μg/mL of cycloheximide to block protein synthesis. Cells were preincubated with cycloheximide for 1 hr before seeding. Cells were seeded onto 384-well plate at density of 5,000 in 25 μL per well. A two fold serial dilution of test compounds, starting from 1 μM (row A) in 2-fold serial dilution series across the column using Tecan D300e dispenser. […]
(§2) Nano-Glo HiBiT Lytic reagent was prepared by adding LgBiT protein and Nano-Glo® substrate to lytic buffer pre-equilibrated at room temperature following manufacturer protocol (https://www.promega.co.uk/resources/protocols/technical-manuals/101/nanoglo-luciferase-assay-system-protocol). […] The plates were then centrifuged (100×G, 1 min) and incubated on shaker for 10 mins before taking readings on Pherastar Luminescence microplate reader. […]

Androgen receptor L702H = molecular target: T2, Androgen receptor L702H (Homo sapiens, UniProt P10275, L702H); assay: Degradation of overexpressed Androgen Receptor in A549 cells (HiBiT), L702H; type: cell-based; details: A549 cells overexpressing AR L702H, cycloheximide, 24 hours
T2 construct: expressed in transfected cells; host or cells: A549, transduced, puromycin selected
T2 sequence (P10275 1-920 L702H): T1 sequence (P10275 1-920 H875Y) with L702H, Y875H
Protocol: as §1, §2

Structure (SMILES): COc1cc(O[C@H]2C(C)(C)[C@H](NC(=O)c3ccc(N4CCC(CN5CCC(n6ncc7c(N8CCC(=O)NC8=O)nccc76)CC5)CC4)c(F)c3)C2(C)C)ccc1C#N [Example 20, N-((1r,3r)-3-(4-Cyano-3-methoxyphenoxy)-2,2,4,4-tetramethylcyclobutyl)-4-(4-((4-(4-(2,4-dioxotetrahydropyrimidin-1(2H)-yl)-1H-pyrazolo[4,3-c]pyridin-1-yl)piperidin-1-yl)methyl)piperidin-1-yl)-3-fluorobenzamide]
- Summary pXC50 (Androgen receptor H875Y): 8.83
- Summary pXC50 (Androgen receptor L702H): 9.00
